# Test results as given in US12053533B2, “Fluorescent probe for cyclooxygenase-2” (The Board of Trustees of the University of Illinois, priority 2020, dated 2024).
# Columns and labels:
# [1] = Analyte selectivity (reactive species); details: CoxFluor 10 μM, analytes up to 500 μM (50 equiv), 4 h
# Description: Analyte Selectivity. Response of CoxFluor (10 μM) to a variety of reactive oxygen, nitrogen, carbonyl, metals, and sulfur species (1, 3, 5, or 50 equiv) were monitored using the plate reader assay. Total volume of the reaction mixture was maintained at 190 μL in 100 mM Tris-HCl buffer (pH 8.0) with a final DMSO concentration of 1.26% (v/v). Assays for CoxFluor or resorufin were initiated by the addition of the analytes and the reactions were incubated at room temperature for up to 4 h. Measurements were recorded at a range of time points, and the relative turn-on was determined relative to a buffer control containing 10 μM CoxFluor or resorufin. Superoxide anion was added as a solution of potassium superoxide in DMSO. Nitroxyl was generated in situ from a solution of Angeli's salt in degassed 10 mM potassium hydroxide solution. Angeli's salt was prepared according to previously reported literature (Methods Enzymol. 1999, 301, 279). NO was generated in situ from a solution of MAHMA-NONOate in degassed 10 mM potassium hydroxide. Peroxynitrite was prepared according to previously reported literature (Anal. Biochem. 2006, 354, 165). All metals were prepared from their chloride salt. Formaldehyde solutions were prepared by depolymerizing saturated aqueous solutions at 100° C. before use. […]
# [2] = Photophysical characterization; assay type: physicochemical
# Description: Photophysical Characterization. Extinction coefficients and fluorescence quantum yields were acquired (n=3) and reported as the average with a relative standard deviation less than 15%. Extinction coefficients were acquired by titrating compound in 100 mM Tris-HCl (pH 8.0) within the linear range. Fluorescence quantum yields were obtained using the modified method for relative fluorescence quantum yield. Dye was titrated into the solution and the absorbance and emission were monitored (excitation at 540 nm). The absorbance was maintained below 0.1 to limit secondary absorbance events. Total emission spectra were integrated, and the relative quantum yield was calculated relative to Rhodamine B (ϕ=0.70, ethanol). The refractive index of 100 mM Tris-HCl (pH 8.0) was measured to be 1.33514.
# [3] = test system: HEK 293T cells; assay: Cell viability (trypan blue exclusion and MTT) in HEK 293T cells; assay type: cell-based; details: 6 h incubation
# Description: (§1) Trypan Blue Exclusion Cytotoxicity Assay. 6-well plates were seeded with 300,000 cells per well (2 mL of 150,000 cells/mL) and incubated at 37° C. with 5% CO2 for 48 to 72 h (˜60-80% confluent). Media was removed and replaced with either 5, 10, or 25 μM CoxFluor in fresh serum-free DMEM media (1.25% DMSO v/v final concentration). […] The trypsin was quenched with the addition of 1.8 mL DMEM media containing 10% FBS and the cells were mixed thoroughly before diluting 1:1 with trypan blue (0.4% in PBS w/v). Percent viability was measured using a Countess® II FL Automated Cell Counter (Thermo Fisher Scientific), where the parameters were optimized to identify live and dead cells. Viability was calculated by the relative to the vehicle control.
# (§2) MTT Cytotoxicity Assay. […] The media was removed at various time points (3 or 6 h) and replaced with 200 μL 20:1 mixture of FBS-free DMEM and (3-(4,5-dimethylthiazol-2-yl)-2,5-diphenyl-tetrazolium bromide (MTT, 5 mg/mL stock in PBS). The cells were incubated for 4 h under the same conditions and then the medium was removed and replaced with DMSO (200 μL/well). The absorbance of each well was recorded after a 1:5 dilution in DMSO at 555 nm on a microplate reader. Viability was calculated by the absorbance relative to the vehicle control.
# [4] = test system: RAW 264.7 macrophage cells; assay: Cell viability (trypan blue exclusion and MTT) in RAW 264.7 macrophage cells; assay type: cell-based, mouse; details: 6 h incubation
# Description: as §1, §2
# [5] = test system: COX-2 activity in RAW 264.7 macrophage lysates; assay: RAW 264.7 macrophage lysate COX-2 activity assay; assay type: cell-based, mouse; details: NEM 1 mM, CoxFluor readout
# [6] = test system: endogenous COX-2 activity in RAW 264.7 macrophage cells; assay: Confocal live-cell imaging of LPS-activated RAW 264.7 macrophages; assay type: cell-based, mouse; details: CoxFluor 10 μM, 4 h, LPS 1 μg/mL, BSO 200 μM
# Description: Confocal Fluorescence Live-Cell Imaging of Lipopolysaccharide-activated RAW 264.7 Macrophages. The surface exposed substrate of 4-well chambered cover glasses was coated with R&D Systems™ Cultrex Poly-L-Lysine (Fisher Scientific) using the manufacturer's protocol. Plates were seeded with 180,000 cells per well (500 μL of 360,000 cells/mL in DMEM media supplemented with 10% FBS) and were allowed to incubate for 38 h at 37° C. with 5% CO2 (70-80% confluent). […] The cells were incubated under these conditions for 17 h at 37° C. with 5% CO2. […] Finally, the cells were stained under identical conditions supplemented with 10 μM CoxFluor (500 μL final volume containing 1.5% DMSO final concentration). After incubation at 37° C. with 5% CO2 for 4 h, each well was imaged using a Zeiss LSM 700 confocal microscope (n=3 technical replicates; n=4 biological replicates). Images were quantified over the entire imaging window, without any processing, using ImageJ (v. 1.51, NIH). All images were processed using identical parameters and false colored (LUT: jet.lut) in ImageJ.
# [7] = test system: COX-2 activity in RAW 264.7 macrophage cells; assay: Flow cytometry of LPS-induced COX-2 activity in RAW 264.7 macrophages; assay type: cell-based, mouse; details: CoxFluor 10 μM
# Text: Flow Cytometry of Lipopolysaccharide-induced COX-2 Expression in RAW 264.7 Macrophages. […] After staining, cells were pelleted using the aforementioned procedure and were resuspended in PBS. […] Replicate numbers correspond to biological replicates.
smiles,measurement,setting,value
CCCCC/C=C\C/C=C\C/C=C\C/C=C\CCCC(=O)N1c2ccc(O)cc2Oc2cc(O)ccc21 [CoxFluor],activation by reactive oxygen/nitrogen species and other oxidants and reductants,[1],no undesirable activation
same,extinction coefficient ε at 572 nm,[2]; 100 mM Tris-HCl pH 8.0,820 M⁻¹ cm⁻¹
same,fluorescence quantum yield ΦF,"[2]; 100 mM Tris-HCl pH 8.0, relative to Rhodamine B",0.29
same,cell viability,[3],suitable viability
same,cell viability,[4],suitable viability
same,maximum increase in COX-2 activity in lysates,[5]; 19 hr LPS activation,17.6 fold
same,increase in COX-2 activity in lysates,[5]; within the first 4 hr of LPS activation,2.4 fold
same,fluorescent enhancement for LPS-stimulated cells relative to the control,[6],1.2 fold
same,"increase in median fluorescence, cells activated 19 hr compared to 4 hr",[7]; after BSO pre-treatment,1.6 fold
same,increase in activity after 19 hr LPS-activation relative to 4 hr,[7]; without GSH depletion,1.2 fold
